Type in all cases: cell-based
Test [1] has as its system PTEN-P2/GFP prostate cancer cells. Nature of the test: Effect of 1,4-naphthoquinone analogs on PTEN-P2/GFP cell proliferation (WST-1 cell viability, 24 h). To be noted: Mus musculus, WST-1, medium with 10% FBS and DHT, read-out: PTEN-P2/GFP cell proliferation, percent of control. Summed up:
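PTEN-P2/GFP cells, 8000/well, in medium with 10% FBS and 10^−8M DHT, dosed next day with increasing analog concentrations (constant DMSO) for 24 h at 37 °C, 5% CO2. Viability read by WST-1 after 3 h at 37 °C, OD at 460 nm.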

The subject of test [2] is human breast cancer SKBR-3 cells. Put plainly: Dose response of 1,4-naphthoquinone analogs in human breast cancer cells SKBR-3 (WST-1, 24 h). The method, then: (§1) 100 microliters of human breast cancer SKBR-3 cells were plated at a density of 8000 cells/well in 96-well plates (triplicates) in growing medium containing 10% Fetal Bovine Serum, penicillin/streptomycin, and glutamine. The next day, increasing concentrations of a 1,4-naphthoquinone analog (diluted from 10 mM DMSO stock solutions) were added. DMSO used as solvent for all analogs, was kept constant through the 96-well plates. The control consisted of DMSO alone. The cells were subsequently incubated for 24 hours at 37° C. and 5% CO2 in normal cell growth conditions. Cell viability was assessed by adding 9 μL/well of WST-1 reagent (Clontech), which measured mitochondrial activity of live cells. […] The incubation time was 3 hours at 37° C. Optical density of the cell samples was measured at 460 nm, by using plate reader Spectra Max 250 (Molecular Devices). The drug was determined to be cytotoxic when OD values show an inverse correlation with analog concentrations.

Test [3] deals with human fibrosarcoma HT1080 cells. Put plainly: Dose response of 1,4-naphthoquinone analogs in human fibrosarcoma cells HT1080 (WST-1, 24 h). As to the method: as §1, with “fibrosarcoma HT1080” for “breast cancer SKBR-3”

In the case of `COc1ccc(OC2=CC(=O)c3ccccc3C2=O)cc1` [Analog F05, 2-(4-methoxyphenoxy)-1,4-naphthoquinone], the activity at 1.2 µM in test [1] was 102%. Besides, in test [1], the activity at 2.5 µM was determined as 113%. Further, the activity at 5 µM in test [1] is 56.1%. Also, the activity at 7.5 µM in test [1] turned out to be 8.83%. Moreover, in test [1], the activity at 10 µM turned out to be 1.32%. In test [1], the activity at 15 µM is 0.77%. The activity at 20 µM in test [1] was 3.41%. The “human SKBR-3 cell proliferation, percent of control” value in test [2] (1.2 μM) is listed as 151.35% of control; in test [2] (2.5 μM), 144.41% of control; in test [2] (5 μM), 120.15% of control; in test [2] (7.5 μM), 94.14% of control; in test [2] (10 μM) it was 17.05% of control; in test [2] (15 μM) it was 1.91% of control. For the same compound, the “human SKBR-3 cell proliferation, percent of control” value in test [2] (20 μM) is listed as 2.99% of control. The “proliferation of human fibrosarcoma HT1080 cells, percent of control” value in test [3] (1.2 μM) is 81.04% of control; in test [3] (2.5 μM), 76.27% of control; in test [3] (5 μM), 67.81% of control; in test [3] (7.5 μM) it was 67.85% of control; in test [3] (10 μM), 66.08% of control; in test [3] (15 μM) it was 55.00% of control. Further, in test [3] (20 μM), the “proliferation of human fibrosarcoma HT1080 cells, percent of control” value is given as 56.04% of control.

Regarding `O=C1C=C(Oc2ccc(OCc3ccccc3)cc2)C(=O)c2ccccc21` [Analog F06, 2-(4-(benzyloxy)phenoxy)-1,4-naphthoquinone], the activity at 1.2 µM in test [1] came to 99.8%. In test [1], the activity at 2.5 µM came to 99.8%. Moreover, the activity at 5 µM in test [1] came to 105%. For the same compound, the activity at 7.5 µM in test [1] stood at 106%. The activity at 10 µM in test [1] worked out at 108%. In test [1], the activity at 15 µM came to 99.2%. Moreover, the activity at 20 µM in test [1] came to 79.9%. Besides, the “human SKBR-3 cell proliferation, percent of control” value in test [2] (1.2 μM) is on record as 152.32% of control; in test [2] (2.5 μM) it was 147.42% of control; in test [2] (5 μM), 134.16% of control; in test [2] (7.5 μM), 151.41% of control; in test [2] (10 μM), 136.66% of control; in test [2] (15 μM) it was 125.96% of control. The “human SKBR-3 cell proliferation, percent of control” value in test [2] (20 μM) is given as 21.95% of control. For the same compound, the “proliferation of human fibrosarcoma HT1080 cells, percent of control” value in test [3] (1.2 μM) was 82.93% of control; in test [3] (2.5 μM), 81.12% of control; in test [3] (5 μM) it was 80.24% of control; in test [3] (7.5 μM) it was 81.24% of control; in test [3] (10 μM), 50.19% of control; in test [3] (15 μM), 49.19% of control. In addition, the “proliferation of human fibrosarcoma HT1080 cells, percent of control” value in test [3] (20 μM) is 46.81% of control.

Consider `Cc1cc(Cl)ccc1OC1=CC(=O)c2ccccc2C1=O` [Analog F07, 2-(4-chloro-2-methylphenoxy)-1,4-naphthoquinone], for which the activity at 2 µM in test [1] (2 μM) was 101%. Further, the activity at 3 µM in test [1] (3 μM) stood at 102%. In test [1] (4 μM), the activity at 4 µM turned out to be 101%. Further, the activity at 5 µM in test [1] stood at 96%. Further, the activity at 6 µM in test [1] (6 μM) was found to be 88.4%. Further, the activity at 7 µM in test [1] (7 μM) stood at 81.8%. Further, the activity at 10 µM in test [1] is 36.3%. Moreover, the activity at 15 µM in test [1] was found to be 19.4%. For the same compound, in test [1] (25 μM), the activity at 25 µM is 12.5%. Besides, the “human SKBR-3 cell proliferation, percent of control” value in test [2] (1.2 μM) is given as 143.50% of control; in test [2] (2.5 μM) it was 160.12% of control; in test [2] (5 μM) it was 131.48% of control; in test [2] (7.5 μM) it was 68.35% of control; in test [2] (10 μM), 12.78% of control; in test [2] (15 μM), 2.70% of control. Further, the “human SKBR-3 cell proliferation, percent of control” value in test [2] (20 μM) is reported as 6.29% of control. In addition, the “proliferation of human fibrosarcoma HT1080 cells, percent of control” value in test [3] (1.2 μM) is reported as 85.35% of control; in test [3] (2.5 μM), 89.16% of control; in test [3] (5 μM), 76.04% of control; in test [3] (7.5 μM) it was 68.43% of control; in test [3] (10 μM), 69.89% of control; in test [3] (15 μM) it was 67.89% of control. Moreover, the “proliferation of human fibrosarcoma HT1080 cells, percent of control” value in test [3] (20 μM) was 69.50% of control.

Values taken from patent US10577315B2, “Compositions and methods for treatment of prostate carcinoma” (Pellficure Pharmaceuticals, Inc., priority 2014, dated 2020).
